{"source": "paper PMC10794137", "about": "“A new antibiotic traps lipopolysaccharide in its intermembrane transporter” (Nature, 2024)", "key": {"[1]": {"test_system": "Acinetobacter baylyi ΔlpxM", "assay": "MIC by broth microdilution, A. baylyi ΔlpxM", "assay_type": "cell-based", "procedure": "Culture, genetic manipulation and MIC measurements of A. baylyi ADP1 were conducted according to previously reported procedures[46],[51]. Point mutants were constructed in a two-step procedure following ref. [52] with the introduction and excision of the integration cassette at codon 66 of pepA, wherein the excising fragment of otherwise wild-type chromosomal DNA sequence from codon 406 of pepA to codon 193 of lptG bore the desired mutation and the resulting clones were screened by amplicon sequencing from codon 81 of HolC to codon 501 of GpmI, whereas lpxM deletion was achieved following the same procedure except that the integration cassette insertion and excision removed codons 79–279 of lpxM to avoid interference with neighbouring and overlapping genes that a larger deletion may risk and replaced codon 78 with an ochre stop codon to prevent a readthrough resulting in an aberrant fusion, with the excising fragment sequence spanning from codon 211 of sppA to codon 497 of ComA and verified by amplicon sequencing from codon 94 of MhpC to codon 327 of ComA as well as by absence of a PCR product corresponding to a region spanning codons 79 to 279 of lpxM to check for duplications. A deletion of the lon protease was made in the same manner to produce the stain used for expression and purification of LptB2FG to mimic the BL21 strain of E. coli used in the rest of purifications, for which the region encompassing 72 base pairs (bp) upstream of the lon start codon and 1 bp downstream of the lon stop codon was excised after being replaced with the same integration cassette, yielding a markerless deletion, with the excising fragment sequence spanning from codon 491 of ArnT to codon 40 of 45_DOPA_Dioxygenase and verified by amplicon sequencing spanning from codon 322 of ArnT to codon 221 of 45_DOPA_Dioxygenase as well as by absence of a PCR product corresponding to a region spanning from codons 328 to 768 of lon to check for duplications. Following amplicon confirmation, three validated isolates of each constructed mutant were tested for susceptibility to a panel of antibiotics with […] known mechanisms of action as a further validation step to ensure congruence of phenotypes across replicates, which was confirmed in all cases and one of the validated replicates was later used for MIC measurements reported here.\nMIC determinations were performed by broth microdilution in line with CLSI guidelines (CLSI M07-A11 2018). Bacterial inocula were prepared by diluting overnight liquid cultures in LB. Antibacterial panels containing antibacterial solutions were inoculated with an appropriate volume of inoculum to give a final inoculum of about 5 × 10^5 c.f.u. ml^−1 and desired test concentrations of antibacterial agents in standard 96-well plates with 0.1 ml of culture per well. The test plates were incubated for 20–24 h and optical density (OD600) was recorded using a plate reader. MIC values corresponded to the lowest compound concentration inhibiting bacterial growth beyond which OD ceased to decrease."}, "LptB2F^I317NGC": {"test_system": "LptB2F^I317NGC", "assay": "LPS release assay, LptB2F(I317N)GC", "assay_type": "biochemical, Acinetobacter baylyi", "details": "LptF I317N complex, E. coli LPS", "procedure": "Proteoliposomes were prepared as described previously. Aqueous E. coli polar lipid extract (Avanti Polar Lipids) (30 mg ml^−1) and aqueous LPS from E. coli EH100 (Ra mutant; Sigma) (2 mg ml^−1) were sonicated briefly for homogenization. For experiments testing the effect of LPS structure, we used LPS isolated from either GKM374 (BL21DE3 eptA::catR arnA::kanR eptC::gentR) or TXM418 (BL21DE3 eptA::catR arnA::FRT eptB::gentR lpxM::kanR) as described previously. A mixture of 20 mM Tris-HCl (pH 8.0), 150 mM NaCl, 7.5 mg ml^−1 of E. coli polar lipids, 0.5 mg ml^−1 of LPS and 0.25% DDM was prepared and kept on ice for 10 min. Purified LptB2FGC or LptB2FG was added to a final concentration of 0.86 μM and the mixture was left on ice for 20 min. The mixture was diluted 100-fold with cold 20 mM Tris-HCl (pH 8.0) and 150 mM NaCl and kept on ice for 20 min. The proteoliposomes were pelleted (300,000g, 2 h, 4 °C), resuspended in 20 mM Tris-HCl (pH 8.0) and 150 mM NaCl, diluted 100× and centrifuged (300,000g, 2 h, 4 °C). The pellets were resuspended in a mixture of 20 mM Tris-HCl (pH 8.0), 150 mM NaCl and 10% glycerol (250 μl per 100 μl of the original predilution solution), homogenized by sonication, flash frozen and stored at −80 °C until use.\nThe amounts of release of LPS from proteoliposomes to LptA were measured as previously described. […]"}}, "note": "“And” between values parts separate entries of the source, which are not always exact repeats. Equal entries are not always repeated."}
{"smiles": "CN1C(=O)[C@H](CCCCN)NC(=O)[C@H](CCCN)NCc2cccnc2Sc2c(Cl)ccc(-c3ccc(N)nc3)c2CNC(=O)[C@@H]1Cc1c[nH]c2ccccc12", "note": "[Compound 1]", "values": [{"measurement": "Fold less susceptible than wild type", "setting": "[1]; A. baylyi lpxM deletion strain vs wild type", "value": 30, "unit": "fold"}, {"measurement": "MIC", "setting": "[1]; A. baylyi ΔlpxM", "value": "0.3 µM and 0.2 µg/mL"}, {"measurement": "Inhibition of LPS release to LptA", "setting": "LptB2F^I317NGC", "value": "did not block LPS release"}]}
